Results from patent publication US9751869B2, “LXR modulators” (BRISTOL-MYERS SQUIBB COMPANY, priority 2013, dated 2017).
pEC50: −log10 of the molar value.

Biological target: T1, LXRβ (Homo sapiens, UniProt P55055)
T1 construct: Co-transfection expression plasmids, comprising full-length LXRα (pCMX-h LXRα or LXRβ (pCMX-hLXRβ)); expressed in transfected cells; host or cells: CV-1 African green monkey kidney cells, transient transfection with pCMX-hLXRβ
T1 sequence (P55055 1-460): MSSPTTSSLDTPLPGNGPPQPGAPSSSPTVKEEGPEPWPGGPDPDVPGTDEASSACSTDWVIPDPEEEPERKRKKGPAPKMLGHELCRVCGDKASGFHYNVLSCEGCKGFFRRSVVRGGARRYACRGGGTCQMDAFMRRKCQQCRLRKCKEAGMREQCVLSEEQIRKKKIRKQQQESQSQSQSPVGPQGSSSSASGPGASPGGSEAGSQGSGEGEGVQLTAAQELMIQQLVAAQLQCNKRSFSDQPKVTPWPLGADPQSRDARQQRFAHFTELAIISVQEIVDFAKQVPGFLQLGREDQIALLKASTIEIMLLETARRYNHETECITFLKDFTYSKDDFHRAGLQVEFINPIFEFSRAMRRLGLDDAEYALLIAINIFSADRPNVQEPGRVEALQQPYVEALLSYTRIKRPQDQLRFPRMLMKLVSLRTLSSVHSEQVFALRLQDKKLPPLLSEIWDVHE
T1 sequence (P19793 1-462 partner): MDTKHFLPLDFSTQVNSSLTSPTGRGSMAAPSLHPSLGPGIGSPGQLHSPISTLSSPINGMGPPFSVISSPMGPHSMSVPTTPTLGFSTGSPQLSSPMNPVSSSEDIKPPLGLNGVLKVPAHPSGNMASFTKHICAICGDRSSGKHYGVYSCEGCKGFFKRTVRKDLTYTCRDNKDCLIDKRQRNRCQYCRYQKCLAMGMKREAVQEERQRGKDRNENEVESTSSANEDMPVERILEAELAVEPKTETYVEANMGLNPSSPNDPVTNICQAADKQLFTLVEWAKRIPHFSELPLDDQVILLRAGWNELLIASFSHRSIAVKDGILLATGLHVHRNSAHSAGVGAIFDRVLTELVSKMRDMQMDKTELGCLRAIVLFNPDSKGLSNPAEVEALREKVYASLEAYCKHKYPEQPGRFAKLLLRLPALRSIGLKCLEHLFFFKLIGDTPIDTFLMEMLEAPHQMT
Test: LXR/LXRE co-transfection assay (luciferase reporter) in CV-1 cells, LXRβ
Type: cell-based
Conditions: for pEC50: CV-1 cells transfected with pCMX-hLXRβ and LXREx1-Tk-Luciferase, 20 hours incubation, read-out: LXRbeta agonism EC50; for Emax: CV-1 cells, relative to maximum response of high control N-(3-((4-fluorophenyl)-(naphthalene-2-sulfonyl)amino)propyl)-2,2-dimethylpropionamide, read-out: LXRbeta % EFFICACY
Method in brief: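 Luciferase read-out after 20 h compound treatment at 37 °C of CV-1 cells carrying transfected hLXRβ plus one-copy LXRE reporter, endogenous RXR partnering. Sigmoidal fit of 10-point half-log curves (4 wells each) gave EC50; % efficacy versus maximal response of the propionamide reference agonist.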

SMILES | pEC50 | Emax [%]
Cc1cc(C(F)(F)F)nn1-c1ccc(-c2cccc(C(C)(C)C(N)=O)c2)cc1-n1nncc1-c1ccc(OC(F)(F)F)cc1 [Example 303, 2-methyl-2-{4′-[5-methyl-3-(trifluoromethyl)-1H-pyrazol-1-yl]-3′-(5-{4-[(trifluoromethyl)oxy]phenyl}-1H-1,2,3-triazol-1-yl)biphenyl-3-yl}propanamide] | 6.08 | 102
Cc1nc(-c2cc(-c3cc(F)c(CO)c(S(C)(=O)=O)c3)ccc2-c2cc(C(C)(C)C(N)=O)nn2C)c(-c2ccc3c(c2)OC(F)(F)O3)o1 [Example 63, 2-(5-(3-(5-(2,2-difluorobenzo[d][1,3]dioxol-5-yl)-2-methyloxazol-4-yl)-3′-fluoro-4′-(hydroxymethyl)-5′-(methylsulfonyl)biphenyl-4-yl)-1-methyl-1H-pyrazol-3-yl)-2-methylpropanamide] | 7.26 | 33
Cn1nc(C(F)(F)C(=O)NC(C)(C)CO)cc1-c1ccc(-c2cc(F)c(CO)c(S(C)(=O)=O)c2)cc1-n1nncc1-c1ccc(OC(F)(F)F)cc1 [Example 27, 2,2-difluoro-2-(5-(3′-fluoro-4′-(hydroxymethyl)-5′-(methylsulfonyl)-3-(5-(4-(trifluoromethoxy)phenyl)-1H-1,2,3-triazol-1-yl)-[1,1′-biphenyl]-4-yl)-1-methyl-1H-pyrazol-3-yl)-N-(1-hydroxy-2-methylpropan-2-yl)acetamide] | 5.81 | 111
Cn1nc(C(F)(F)C(C)(C)O)cc1-c1ccc(-c2cc(F)c(CO)c(S(C)(=O)=O)c2)cc1-n1nncc1-c1ccc2c(c1)OC(F)(F)O2 [Example 34, 1-(5-(3-(5-(2,2-difluorobenzo[d][1,3]dioxol-5-yl)-1H-1,2,3-triazol-1-yl)-3′-fluoro-4′-(hydroxymethyl)-5′-(methylsulfonyl)-[1,1′-biphenyl]-4-yl)-1-methyl-1H-pyrazol-3-yl)-1,1-difluoro-2-methylpropan-2-ol] | 6.06 | 63
Cc1nc(-c2ccc(OC(F)(F)F)cc2)c(-c2cc(-c3ccc(CO)c(S(C)(=O)=O)c3)ccc2-n2ccc(C(C)(C)C#N)n2)o1 [Example 378, 2-(1-(4′-(hydroxymethyl)-3-(2-methyl-4-(4-(trifluoromethoxy)phenyl)oxazol-5-yl)-3-(methylsulfonyl)-[1,1′-biphenyl]-4-yl)-1H-pyrazol-3-yl)-2-methylpropanenitrile] | 7.82 | 29
Cc1nc(-c2cc(-c3cccc(C(C)(C)C(N)=O)c3)ccc2-n2nc(C(F)(F)F)cc2Cl)c(-c2ccc(OC(F)(F)F)cc2)o1 [Example 404, 2-(4′-(5-chloro-3-(trifluoromethyl)-1H-pyrazol-1-yl)-3′-(2-methyl-5-(4-(trifluoromethoxy)phenyl)oxazol-4-yl)biphenyl-3-yl)-2-methylpropanamide] | 6.73 | 67
CS(=O)(=O)c1cccc(-c2ccc(-n3ccc(C(F)(F)F)n3)c(-c3nc(C4CC4)oc3-c3ccc(OC(F)(F)F)cc3)c2)c1 [Example 403, 2-cyclopropyl-4-(3′-(methylsulfonyl)-4-(3-(trifluoromethyl)-1H-pyrazol-1-yl)biphenyl-3-yl)-5-(4-(trifluoromethoxy)phenyl)oxazole] | 7.09 | 62
Cc1c(C(C)(F)F)nn(C)c1-c1ccc(-c2cccc(S(C)(=O)=O)c2)cc1-n1nncc1-c1ccc(OC(F)(F)F)cc1 [Example 10, 1-(4-(3-(1,1-difluoroethyl)-1,4-dimethyl-1H-pyrazol-5-yl)-3′-(methylsulfonyl)biphenyl-3-yl)-5-(4-(trifluoromethoxy)phenyl)-1H-1,2,3-triazole] | 7.51 | 104
Cn1nc(C(F)(F)F)cc1-c1ccc(-c2cc(Cl)c(CO)c(S(C)(=O)=O)c2)cc1-n1nncc1-c1ccc(OC(F)(F)F)cc1 [Example 13] | 7.35 | 83
Cc1nc(-c2ccc3c(c2)OC(F)(F)O3)c(-c2cc(-c3cc(F)c(CO)c(S(C)(=O)=O)c3)ccc2-c2cc(C(C)O)nn2C)o1 (centres unmarked) [Example 103, 1-(5-(3-(4-(2,2-difluorobenzo[d][1,3]dioxol-5-yl)-2-methyloxazol-5-yl)-3′-fluoro-4′-(hydroxymethyl)-5′-(methylsulfonyl)-[1,1′-biphenyl]-4-yl)-1-methyl-1H-pyrazol-3-yl)ethanol] | 6.83 | 47
CS(=O)(=O)c1cc(-c2ccc(-n3ccc(C(F)(F)F)n3)c(-c3oc(C4CC4)nc3-c3ccc(OC(F)(F)F)cc3)c2)cc(F)c1CO [Example 339, (3′-(2-cyclopropyl-4-(4-(trifluoromethoxy)phenyl)oxazol-5-yl)-3-fluoro-5-(methylsulfonyl)-4′-(3-(trifluoromethyl)-1H-pyrazol-1-yl)biphenyl-4-yl)methanol] | 7.22 | 64
CS(=O)(=O)c1cccc(-c2ccc(-n3ccc(C(F)(F)F)n3)c(-c3oc(C4CC4)nc3-c3ccc(OC(F)(F)F)cc3)c2)c1 [Example 338, 2-cyclopropyl-5-(3′-(methylsulfonyl)-4-(3-(trifluoromethyl)-1H-pyrazol-1-yl)biphenyl-3-yl)-4-(4-(trifluoromethoxy)phenyl)oxazole] | 6.73 | 58

Continued, values first:

pEC50 | Emax [%] | SMILES
8.40 | 71 | Cc1nc(-c2ccc3c(c2)OC(F)(F)O3)c(-c2cc(-c3cccc(S(C)(=O)=O)c3)ccc2-n2cc(Cl)c(C(F)(F)F)n2)o1 [Example 419, 5-(4-(4-chloro-3-(trifluoromethyl)-1H-pyrazol-1-yl)-3′-(methylsulfonyl)-[1,1′-biphenyl]-3-yl)-4-(2,2-difluorobenzo[d][1,3]dioxol-5-yl)-2-methyloxazole]
7.38 | 55 | Cc1nc(-c2ccc3c(c2)OC(F)(F)O3)c(-c2cc(-c3cccc(S(C)(=O)=O)c3)ccc2-c2cc(C(F)(F)C(N)=O)nn2C)o1 [Example 73, 2-(5-(3-(4-(2,2-difluorobenzo[d][1,3]dioxol-5-yl)-2-methyloxazol-5-yl)-3′-(methylsulfonyl)biphenyl-4-yl)-1-methyl-1H-pyrazol-3-yl)-2,2-difluoroacetamide]
6.46 | 37 | Cc1nc(-c2ccc3c(c2)OC(F)(F)O3)c(-c2cc(-c3cccc(S(C)(=O)=O)c3)ccc2-c2cc(C(=O)NC(C)(C)C)nn2C)o1 [Example 113, N-(tert-butyl)-5-(3-(4-(2,2-difluorobenzo[d][1,3]dioxol-5-yl)-2-methyloxazol-5-yl)-3′-(methylsulfonyl)-[1,1′-biphenyl]-4-yl)-1-methyl-1H-pyrazole-3-carboxamide]
7.66 | 35 | Cc1nc(-c2ccc(OC(F)(F)F)cc2)c(-c2cc(-c3cc(F)c(CO)c(S(C)(=O)=O)c3)ccc2-n2cc(Cl)c(C(C)(C)O)n2)o1 [Example 443]
7.03 | 58 | COc1ncc(-c2nc(C)oc2-c2cc(-c3cccc(S(C)(=O)=O)c3)ccc2-n2cc(Cl)c(C(F)(F)F)n2)cn1 [Example 427, 5-(4-(4-chloro-3-(trifluoromethyl)-1H-pyrazol-1-yl)-3′-(methylsulfonyl)-[1,1′-biphenyl]-3-yl)-4-(2-methoxypyrimidin-5-yl)-2-methyloxazole]
7.62 | 112 | Cc1nc(-c2ccc3c(c2)OC(F)(F)O3)c(-c2cc(-c3cccc(S(C)(=O)=O)c3)ccc2-n2nc(C(F)(F)F)cc2C)o1 [Example 328, 4-(2,2-difluorobenzo[d][1,3]dioxol-5-yl)-2-methyl-5-(4-(5-methyl-3-(trifluoromethyl)-1H-pyrazol-1-yl)-3′-(methylsulfonyl)biphenyl-3-yl)oxazole]
7.43 | 90 | Cc1nc(-c2ccc3c(c2)OC(F)(F)O3)c(-c2cc(-c3cccc(S(C)(=O)=O)c3)ccc2-n2nc(C(F)(F)F)cc2Cl)o1 [Example 346, 5-(4-(5-chloro-3-(trifluoromethyl)-1H-pyrazol-1-yl)-3′-(methylsulfonyl)biphenyl-3-yl)-4-(2,2-difluorobenzo[d][1,3]dioxol-5-yl)-2-methyloxazole]
